Like-named read-outs stand apart in the source and are kept apart here.
What was measured:
[1] = molecular target: HDAC1 enzyme (Homo sapiens, UniProt Q13547); assay: In vitro HDAC assay (BIOMOL fluorescent-based HDAC activity assay), HDAC1; assay type: biochemical
Description: (§2) Expression of GST-HDAC1 or HTGST-HDAC8 was done by infecting SF9 cells (Invitrogen Pte Ltd) with pDEST20-HDAC1 or pFASTBAC-GST-HDAC8 baculovirus at MOI=1 for 48 h. Soluble cell lysate was incubated with pre-equilibrated Glutathione Sepharose 4B beads (Amersham) at 4°C for 2 h. The beads were washed with PBS buffer for 3 times. The GST-HDAC1 protein or GST-HDAC8 protein was eluted by elution buffer containing 50 mM Tris, pH8.0, 150mM NaCl, 1% Triton X-100 and 10mM or 20mM reduced Glutathione. The purified GST-HDAC1 protein or purified GST-HDAC8 protein was dialyzed with HDAC storage buffer containing 10mM Tris, pH7.5, 100mM NaCl and 3mM MgCl2. 20% Glycerol was added to purified GST-HDAC1 protein or purified GST-HDAC8 before storage at -80°C.

[2] = molecular target: HDAC8 enzyme; assay: In vitro HDAC assay (BIOMOL fluorescent-based HDAC activity assay), HDAC8; assay type: biochemical, human
Description: as §2

[3] = tested on: HDAC3; assay: In vitro HDAC assay, HDAC3; assay type: biochemical; details: Table 5; Free base
Description: The assay has been carried, out in 96 well format and the BIOMOL fluorescent-based HDAC activity assay has been applied. […] Flur de lys Developer was added and the reaction was incubated for 10 min. Briefly, deacetylation of the substrate sensitizes it to the developer, which then generates a fluorophore (symbol). The fluorophore is excited with 360 nm light and the emitted light (460 nm) is detected on a fluorometric plate reader (Tecan Ultra Microplate detection system, Tecan Group Ltd.).
The analytical software, Prism 3.0 has been used to generate IC50 from a series of data.

[4] = tested on: Colo205; assay: Cell-based proliferation assay (cyquant), Colo205; design: species or system human;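 further: Colo205 cells exposed for 96 h to a range of compound concentrations, growth read by CyQUANT, GI50 taken from plotted dose-response curves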
Description: (§3) Human colon cancer cell lines (Colo205 and HCT116), human breast cancer cell lines (MDA-MB435 and MDA-MB231), and human lung cancer cell line (A549) were obtained from ATCC. […] MDA-MB435 cells were cultivated in DMEM containing 2 mM L-Glutamine, 5% FBS. HCT116 cells were cultivated in IMEM containing 2 mM L-Glutamine, 5% FBS. A549 and Colo205 cells were seeded in 96-wells plate at 2000 and 5000 cells per well respectively. MDA-MB435, HCT116, MDA-MB231 cells were seeded in 96-wells plate at 6000 cells per well. The plates were incubated at 37°C, 5% CO2, for 24 h. Cells, were treated with compounds at various concentration for 96 h. Cell growth was then monitored using cyquant cell proliferation assay (Invitrogen Pte Ltd). Dose response curves were plotted to determine GI50 values for the compounds using XL-fist.

[5] = tested on: MDA-MB435; assay: Cell-based proliferation assay (cyquant), MDA-MB435; design: species or system human;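 further: GI50 taken from dose–response curves over a range of compound concentrations, with cell growth quantified by the CyQUANT proliferation assay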
Description: as §3

[6] = tested on: HCT116; assay: Cell-based proliferation assay (cyquant), HCT116; details: Homo sapiens, HCT-116; Table 5; Free base
Description: as §3

[7] = tested on: MDA-MB231; assay: Cell-based proliferation assay (cyquant), MDA-MB231; details: Homo sapiens, MDA-MB-231; Table 5; Free base
Description: as §3

[8] = tested on: A549; assay: Cell-based proliferation assay (cyquant), A549; details: Homo sapiens, Table 5, Free base
Description: as §3

[9] = tested on: acetylated H3; assay: Histone acetylation assay by immuno-blotting, acetylated H3; assay type: cell-based, human; details: Colo205 cells, 0.1, 1, 5 and 10 µM, 24 h, western blot
Description: (§1) A hallmark of histone deacetylase (HDAC) inhibition is the increase in the acetylation level of histones. Histone acetylation, including H3, H4 and H2A can be detected by immuno-blotting (westem-blot). Colo205 cells, approximately 1.5 x10^6 cells/ 10 cm dish, were seeded in the previously described medium, cultivated for 24 h and subsequently treated with HDAC inhibitory agents at 0.1, 1; 5 and 10 µM final concentration. After 24 h, cells were harvested and lysed according to the instruction from Sigma Mammalian Cell Lysis Kit. The protein concentration was quantified using BCA method (Sigma Pte Ltd). The protein lysate was separated using 4-12% bis-tris SDS-PAGE gel (Invitrogen Pte Ltd) and was transferred onto PVDF membrane (BioRad Pte Ltd). The membrane was probed separately using primary antibody specific for acetylated H3, acetylated H4 or acetylated H2A (Upstate Pte Ltd). The detection antibody, goat anti rabbit antibody conjugated with HRP was used according to the manufacturing instruction (Pierce Pte Ltd). After removing the detection antibody from the membrane, an enhanced chemiluminescent substrate for detection of HRP (Pierce Pte Ltd) was added onto the membrane. After removing the substrate, the membrane was exposed to an X-ray film (Kodak) for 1 sec - 20 mins. The X-ray film was developed using the X-ray film processor. The density of each band observed on the developed film could be analysed using UVP Bioimaging software (UVP, Inc, Upland, CA). The values were then normalized against the density of actin in the corresponding samples to obtain the expression of the protein.

[10] = tested on: acetylated H4; assay: Histone acetylation assay by immuno-blotting, acetylated H4; assay type: cell-based, human; details: Colo205 cells, 0.1, 1, 5 and 10 µM, 24 h, western blot
Description: as §1

[11] = tested on: acetylated H2A; assay: Histone acetylation assay by immuno-blotting, acetylated H2A; assay type: cell-based, human; details: Colo205 cells, 0.1, 1, 5 and 10 µM, 24 h, western blot
Description: as §1

[12] = Table 5, Salt of CF3COOH, read-out: IC50 (HDAC1)
[13] = Table 5, Free base, read-out: IC50 (HDAC8)
[14] = Homo sapiens, COLO 205, 96 h, Table 4, 96 h treatment
[15] = Homo sapiens, COLO 205, Table 5, Free base
[16] = Homo sapiens, COLO 205, Table 5, Salt of CF3COOH
[17] = Homo sapiens, MDA-MB-435, Table 5, Free base
[18] = Table 3, read-out: HDAC8 Enzyme Activity IC50
[19] = Homo sapiens, MDA-MB-435, Table 4, 96 h treatment
[20] = Table 3, read-out: HDAC1 Enzyme Activity IC50
[21] = Homo sapiens, COLO 205, Table 4, 96 h treatment

Sequence of HDAC1 enzyme (Q13547 whole entry): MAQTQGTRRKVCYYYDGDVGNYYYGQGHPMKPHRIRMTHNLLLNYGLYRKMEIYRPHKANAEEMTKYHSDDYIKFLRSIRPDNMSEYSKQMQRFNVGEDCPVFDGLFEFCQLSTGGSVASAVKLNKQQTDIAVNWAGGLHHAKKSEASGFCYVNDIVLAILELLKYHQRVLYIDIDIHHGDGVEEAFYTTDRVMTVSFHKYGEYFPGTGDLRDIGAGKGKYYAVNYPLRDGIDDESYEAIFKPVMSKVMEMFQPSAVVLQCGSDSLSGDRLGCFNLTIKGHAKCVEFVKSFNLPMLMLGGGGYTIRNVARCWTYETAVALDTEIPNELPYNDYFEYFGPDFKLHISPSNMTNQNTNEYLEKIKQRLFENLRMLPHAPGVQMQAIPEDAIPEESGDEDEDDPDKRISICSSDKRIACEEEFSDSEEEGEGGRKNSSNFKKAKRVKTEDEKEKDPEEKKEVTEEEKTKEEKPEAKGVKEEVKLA

O=C(/C=C/c1ccc2c(c1)nc(CCc1ccccc1)n2CCN1CCCCC1)NO [Compound 67, N-Hydroxy-3-[2-phenethyl-1-(piperidin-1-yl-ethyl)-1H-benzimidazol-5-yl]-acrylamide]
IC50 [1, 12]: 39 nM
IC50 [2, 13]: 254 nM
IC50 [3]: 56 nM
GI50 [4, 14]: 80 nM
GI50 [4, 15]: 90 nM
GI50 [4, 16]: 90 nM
GI50 [5, 17]: 190 nM
GI50 [6]: 60 nM
GI50 [7]: 60 nM
GI50 [8]: 80 nM
Histone acetylation activities Histone-3 [9]: Active
Histone acetylation activities Histone-4 [10]: Active
Histone acetylation activities Histone-2A [11]: Active

CCCCCCCCc1nc2cc(/C=C/C(=O)NO)ccc2n1CCCO [Compound 23, N-Hydroxy-3-[1-(3-hydroxy-propyl)-2-octyl-1H-benzimidazol-5-yl]-acrylamide]
IC50 [2, 18]: 402 nM
GI50 [4, 14]: 3650 nM
GI50 [5, 19]: 3720 nM

CN(C)CC(C)(C)Cn1c(CCc2ccccc2)nc2cc(/C=C/C(=O)NO)ccc21 [Compound 17, N-Hydroxy-3-[1-(3-Dimethylamino-2,2-dimethyl-proppyl)-2-phenethyl-1H-benzimidazol-5-yl]-acrylamide]
IC50 [1, 20]: 24 nM
IC50 [1, 12]: 24 nM
IC50 [2, 18]: 353 nM
IC50 [2, 13]: 353 nM
GI50 [4, 14]: 60 nM
GI50 [4, 15]: 60 nM
GI50 [4, 16]: 110 nM
GI50 ([4]; Homo sapiens, COLO 205, Table 5, Salt of HCl): 60 nM
GI50 ([4]; Homo sapiens, COLO 205, Table 5, Salt of Methane sulfonic acid): 40 nM
GI50 [5, 19]: 560 nM
GI50 [5, 17]: 600 nM
GI50 [6]: 300 nM
GI50 [7]: 700 nM
GI50 [8]: 200 nM
Histone acetylation activities Histone-3 [9]: Active
Histone acetylation activities Histone-4 [10]: Active
Histone acetylation activities Histone-2A [11]: Active

CC(C)Cc1nc2cc(/C=C/C(=O)NO)ccc2n1CCCO [Compound 21, N-Hydroxy-3-[1-(3-hydroxy-propyl)-2-isobutyl-1H-benzimidazol-5-yl]-acrylamide]
IC50 [2, 18]: 238 nM
GI50 [4, 14]: 25900 nM
GI50 [5, 19]: 30300 nM

O=C(/C=C/c1ccc2c(c1)ncn2Cc1ccccc1)NO [Compound 35, N-Hydroxy-3-(1-Benzyl-1H-benzimidazol-5-yl)-acrylamide]
IC50 [2, 18]: 412 nM
GI50 [4, 14]: 1890 nM
GI50 [5, 19]: 6760 nM

COc1cc(Cn2c(CCc3ccccc3)nc3cc(CCC(=O)NO)ccc32)cc(OC)c1OC [Compound 45]
IC50 [1, 20]: 167 nM
GI50 ([4]; Table 4, 96 h treatment, read-out: GI50 (Colo 205)): 2410 nM
GI50 ([5]; Table 4, 96 h treatment): 1900 nM

O=C(/C=C/c1ccc2c(c1)nc(-c1ccncc1)n2CCCO)NO [Compound 11, N-Hydroxy-3-[1-(3-hydroxy-propyl)-2-(4-pyridyl)-1H-benzimidazol-5-yl]-acrylamide]
IC50 [2, 18]: 161 nM
GI50 [4, 21]: > 100000 nM
GI50 [5, 19]: > 100000 nM

COc1cc(Cn2c(CCc3ccccc3)nc3cc(/C=C/C(=O)NO)ccc32)cc(OC)c1OC [Compound 2, N-Hydroxy-3-[1-(3,4,5-trimethoxybenzyl)-2-(2-phenyl-ethyl)-1H-benzimidazol-5-yl]-acrylamide]
IC50 [2, 18]: 355 nM
IC50 [3]: 64 nM
GI50 [4, 14]: 430 nM
GI50 [4, 15]: 400 nM
GI50 [4, 16]: 400 nM
GI50 [5, 19]: 320 nM
GI50 [5, 17]: 300 nM
GI50 [6]: 400 nM
GI50 [7]: 500 nM
GI50 [8]: 300 nM
Histone acetylation activities Histone-3 [9]: Active
Histone acetylation activities Histone-4 [10]: Active
Histone acetylation activities Histone-2A [11]: Active

O=C(/C=C/c1ccc2c(c1)nc(CCc1ccccc1)n2CCCO)NO [Compound 14, N-Hydroxy-3-[1-(3-hydroxy-propyl)-2-phenethyl-1H-benzimidazol-5-yl]-acrylamide]
IC50 [2, 18]: 251 nM
GI50 [4, 14]: 3070 nM
GI50 [5, 19]: 5990 nM

CCn1c(C)nc2cc(/C=C/C(=O)NO)ccc21 [Compound 43, N-Hydroxy-3-(1-Ethyl-2-methyl-1H-benzimidazol-5-yl]-acrylamide]
IC50 [2, 18]: 192 nM
GI50 [4, 21]: 9180 nM
GI50 [5, 19]: 8620 nM

O=C(/C=C/c1ccc2c(c1)nc(CCc1ccccc1)n2Cc1ccccc1)NO [Compound 33, N-Hydroxy-3-(1-Benzyl-2-phenethyl-1H-benzimidazol-5-yl)-acrylamide]
IC50 [2, 18]: 1450 nM
GI50 [4, 14]: 1540 nM
GI50 [5, 19]: 3380 nM

O=C(/C=C/c1ccc2c(c1)nc(CCc1ccccc1)n2CCc1cccnc1)NO [Compound 27, N-Hydroxy-3-(2-phenethyl-1-(2-pyridin-3-yl-ethyl)-1H-benzimidazol-5-yl]-acrylamide]
IC50 [2, 18]: 329 nM
GI50 [4, 21]: 2230 nM
GI50 [5, 19]: 3440 nM

COc1cc(-c2nc3cc(/C=C/C(=O)NO)ccc3n2CCCO)ccc1OCc1ccccc1 [Compound 4, N-Hydroxy-3-[2-(4-benzyloxy-3-methoxy-phenyl)-1-(3-hydroxy-propyl)-1H-benzimidazole-5-yl]-acrylamide]
IC50 [2, 18]: 790 nM
GI50 [4, 14]: 29900 nM
GI50 [5, 19]: 25700 nM

O=C(/C=C/c1ccc2c(c1)nc(-c1ccsc1)n2CCCO)NO [Compound 20, N-Hydroxy-3-[1-(3-hydroxy-propyl)-2-thiophen-3-yl-1H-benzimidazol-5-yl]-acrylamide]
IC50 [2, 18]: 537 nM
GI50 [4, 14]: 30900 nM
GI50 [5, 19]: 37200 nM

O=C(/C=C/c1ccc2c(c1)nc(CCc1ccccc1)n2Cc1cccnc1)NO [Compound 12, N-Hydroxy-3-[1-(3-pyridylmethyl)-2-(2-phenyl-ethyl)-1H-benzimidazol-5-yl]-acrylamide]
IC50 [2, 18]: 202 nM
GI50 [4, 21]: 380 nM
GI50 [5, 19]: 1070 nM
Histone acetylation activities Histone-3 [9]: Active
Histone acetylation activities Histone-4 [10]: Active

CC(Cc1nc2cc(/C=C/C(=O)NO)ccc2n1CCCO)c1ccccc1 (stereo not drawn) [Compound 1, N-Hydroxy-3-[1-(3-hydroxy-propyl)-2-(2-phenyl-propyl)-1H-benzimidazol-5-yl]-acrylamide]
IC50 [2, 18]: 119 nM
GI50 [4, 14]: 520 nM
GI50 [5, 19]: 1640 nM
Histone acetylation activities Histone-3 [9]: Active
Histone acetylation activities Histone-4 [10]: Active
Histone acetylation activities Histone-2A [11]: Active

O=C(/C=C/c1ccc2c(c1)nc(CCc1ccccc1)n2CCCN1CCCC1=O)NO [Compound 30, N-Hydroxy-3-{1-[3-(2-oxo-pyrrolidin-1-yl)-propyl]-2-phenethyl-1H-benzimidazol-5-yl}-acrylamide]
IC50 [2, 18]: 724 nM
GI50 [4, 14]: 11400 nM
GI50 [5, 19]: 19800 nM

From patent EP1673349B1, “BENZIMIDAZOLE DERIVATIVES: PREPARATION AND PHARMACEUTICAL APPLICATIONS” (priority 2003, dated 2005)
